The results in this text go back to ChEMBL document CHEMBL2396648, “Potent suppression of c-di-GMP synthesis via I-site allosteric inhibition of diguanylate cyclases with 2'-F-c-di-GMP” (Bioorg Med Chem, 2013).

pIC50, pKi: −log10 of the molar value. Activity calls are given as the source filed them. The calls are words filed in the database; no cut-off is given here.

The test system of assay [1] is Pseudomonas aeruginosa PA14. Description: Inhibition of Pseudomonas aeruginosa PA14 PvrR using [32P]-GTP as substrate at 100 uM after 120 mins by thin layer chromatographic analysis.
Assay [2] concerns the target T1, Cyclic di-GMP phosphodiesterase RocR (Pseudomonas aeruginosa (strain ATCC 15692 / PAO1 / 1C / PRS 101 / LMG12228)) (UniProt Q9HX69).
T1 sequence (whole entry): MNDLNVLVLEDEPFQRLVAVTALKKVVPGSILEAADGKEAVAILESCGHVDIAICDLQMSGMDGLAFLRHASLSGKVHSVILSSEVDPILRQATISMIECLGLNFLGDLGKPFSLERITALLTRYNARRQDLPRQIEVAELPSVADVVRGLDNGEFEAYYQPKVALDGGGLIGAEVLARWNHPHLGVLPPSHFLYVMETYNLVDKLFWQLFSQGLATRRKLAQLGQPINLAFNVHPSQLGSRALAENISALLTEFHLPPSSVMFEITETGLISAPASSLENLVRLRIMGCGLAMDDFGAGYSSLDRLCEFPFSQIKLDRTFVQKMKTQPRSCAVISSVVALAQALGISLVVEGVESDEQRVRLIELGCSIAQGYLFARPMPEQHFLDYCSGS
As to the kind of experiment: Inhibition of Pseudomonas aeruginosa PAO1 His6-tagged RocR expressed in Escherichia coli BL21 (DE3) using [32P]-GTP as substrate at 100 uM after 120 mins by thin layer chromatographic analysis.

Assay [3] has as its system Pseudomonas aeruginosa PA14. Description: Inhibition of Pseudomonas aeruginosa PA14 diguanylate cyclase PA1107 using [32P]-GTP as substrate at 100 uM after 120 mins by thin layer chromatographic analysis.
A short description of assay [4]: Competitive binding affinity to Pseudomonas aeruginosa Alg44 PilZ domain after 5 mins in presence of [32P]-c-di-GMP.
In assay [5] the target is T2, Cyclic di-GMP phosphodiesterase RocR (Pseudomonas aeruginosa (strain ATCC 15692 / PAO1 / 1C / PRS 101 / LMG12228), UniProt Q9HX69).
T2 sequence (Q9HX69 whole entry): T1 sequence (whole entry)
Description: Competitive binding affinity to Pseudomonas aeruginosa PAO1 His6-tagged RocR expressed in Escherichia coli BL21 (DE3) after 5 mins in presence of [32P]-c-di-GMP.

The nature of assay [6]: Competitive binding affinity to Pseudomonas aeruginosa WspR after 5 mins in presence of [32P]-c-di-GMP.
Assay [7] is described as follows: Allosteric inhibition of Pseudomonas aeruginosa WspR using [32P]-GTP as substrate measured for 1 hr by thin layer chromatographic analysis.
A further assay relates to Pseudomonas aeruginosa. Description: Inhibition of Pseudomonas aeruginosa WspR using [32P]-GTP as substrate at 100 uM after 120 mins by thin layer chromatographic analysis.

Usually pIC50 stands for the IC50 on a negative log10 scale, so that one unit is a factor of ten. By pKi is commonly meant −log10 of the Ki, conventionally taken in molar units. A lower pKi goes with a high Ki. Take `Nc1nc2c(ncn2[C@@H]2O[C@@H]3COP(=O)(O)O[C@H]4[C@@H](F)[C@H](n5cnc6c(=O)[nH]c(N)nc65)O[C@@H]4COP(=O)(O)O[C@H]3[C@H]2F)c(=O)[nH]1`: the inhibition result in assay [1] is “inactive”. Also, the inhibition entry (in assay [2]; in assay [3]; in the assay on Pseudomonas aeruginosa) was “Active” throughout. For the same molecule, the figures for the pIC50 in assay [4], in assay [5] and in assay [6] were 5.51, 6.14 and 4.96, respectively. The pKi in assay [7] is 4.90.

Consider `Nc1nc2c(ncn2[C@@H]2O[C@@H]3COP(=O)(O)O[C@H]4[C@@H](O)[C@H](n5cnc6c(=O)[nH]c(N)nc65)O[C@@H]4COP(=O)(O)O[C@H]3[C@H]2O)c(=O)[nH]1`, for which the inhibition result in assay [1] is “inactive”. The inhibition entry (in assay [2]; in assay [3]; in the assay on Pseudomonas aeruginosa) was “Active” in each case. In addition, the pIC50 in assay [4] was 5.11; in assay [6], 4.31. In assay [7], this molecule had a pKi of 4.81.

As to `Nc1nc2c(ncn2[C@@H]2O[C@@H]3CO[P@](=O)(O)O[C@H]4[C@@H](O)[C@H](n5cnc6c(=O)[nH]c(N)nc65)O[C@@H]4CO[P@](=O)(O)O[C@H]3[C@H]2O)c(=O)[nH]1`, in assay [5], the pIC50 is 7.70.

With `Nc1nc2c(ncn2[C@H]2C[C@@H]3OP(=O)(O)OC[C@H]4O[C@@H](n5cnc6c(=O)[nH]c(N)nc65)C[C@@H]4OP(=O)(O)OC[C@H]3O2)c(=O)[nH]1`, the pIC50 in assay [4] is 4.87; in assay [5], 7.70; in assay [6], < 4.00.

Turning to `CO[C@@H]1[C@@H]2OP(=O)(O)OC[C@H]3O[C@@H](n4cnc5c(=O)[nH]c(N)nc54)[C@H](OC)[C@@H]3OP(=O)(O)OC[C@H]2O[C@H]1n1cnc2c(=O)[nH]c(N)nc21`, the pIC50 is < 4.00 in assay [4], 5.19 in assay [5] and < 4.00 in assay [6].
